Values after ≈ are worked out from the molar mass of the structure shown.
What was measured:
[1] = target: Voltage-gated inwardly rectifying potassium channel KCNH2 (Homo sapiens, UniProt Q12809); assay: Inhibition of hERG channel; type: toxicity
[2] = target: T1, Somatostatin receptor type 5 (Homo sapiens, UniProt P35346); assay: Antagonist activity at human SST5R expressed in CHO cells assessed as reversal of somatostatin-14 induced cAMP response; type: functional, cell-based
[3] = Solubility at pH 6.5 by lyophilisation solubility assay; type: physicochemical; settings: buffer
[4] = Distribution coefficient, log D at pH 7.4; type: physicochemical; settings: octanol/water
[5] = target: Histamine H1 receptor (Homo sapiens, UniProt P35367); assay: Binding affinity to histamine H1 receptor
Sequence of Histamine H1 receptor (P35367 whole entry): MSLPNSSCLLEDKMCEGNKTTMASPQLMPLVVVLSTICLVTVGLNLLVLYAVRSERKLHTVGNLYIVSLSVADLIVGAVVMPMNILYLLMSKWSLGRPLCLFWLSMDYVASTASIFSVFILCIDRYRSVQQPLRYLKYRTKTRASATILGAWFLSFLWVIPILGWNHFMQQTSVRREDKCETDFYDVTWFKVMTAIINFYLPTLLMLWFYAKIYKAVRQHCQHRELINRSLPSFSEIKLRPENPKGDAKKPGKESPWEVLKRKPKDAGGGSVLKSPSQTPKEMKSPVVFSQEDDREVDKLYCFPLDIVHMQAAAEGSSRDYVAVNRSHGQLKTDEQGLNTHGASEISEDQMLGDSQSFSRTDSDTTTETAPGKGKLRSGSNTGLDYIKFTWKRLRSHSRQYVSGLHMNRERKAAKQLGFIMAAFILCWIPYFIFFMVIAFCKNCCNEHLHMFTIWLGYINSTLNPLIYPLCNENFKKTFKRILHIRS

[6] = Passive membrane permeability by PAMPA; type: ADME; settings: read-out: permeability
[7] = target: T1, Somatostatin receptor type 5; assay: Displacement of [125I]11-Tyr somatostatin-14 from human SST5R expressed in CHO cells; type: cell-based
[8] = target: Somatostatin receptor type 2 (Homo sapiens, UniProt P30874); assay: Binding affinity to human SST2R
Sequence of Somatostatin receptor type 2 (P30874 whole entry): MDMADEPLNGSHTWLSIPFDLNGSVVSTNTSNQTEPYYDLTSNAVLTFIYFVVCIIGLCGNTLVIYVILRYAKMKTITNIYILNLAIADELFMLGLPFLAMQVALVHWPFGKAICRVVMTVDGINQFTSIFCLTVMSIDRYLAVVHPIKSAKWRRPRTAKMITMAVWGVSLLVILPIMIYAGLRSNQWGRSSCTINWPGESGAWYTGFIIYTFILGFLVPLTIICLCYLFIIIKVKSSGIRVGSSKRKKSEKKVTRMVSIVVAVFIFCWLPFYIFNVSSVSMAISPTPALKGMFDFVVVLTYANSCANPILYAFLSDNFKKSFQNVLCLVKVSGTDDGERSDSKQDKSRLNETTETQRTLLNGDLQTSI

[9] = target: Somatostatin receptor type 3 (Homo sapiens, UniProt P32745); assay: Binding affinity to human SST3R
Sequence of Somatostatin receptor type 3 (P32745 whole entry): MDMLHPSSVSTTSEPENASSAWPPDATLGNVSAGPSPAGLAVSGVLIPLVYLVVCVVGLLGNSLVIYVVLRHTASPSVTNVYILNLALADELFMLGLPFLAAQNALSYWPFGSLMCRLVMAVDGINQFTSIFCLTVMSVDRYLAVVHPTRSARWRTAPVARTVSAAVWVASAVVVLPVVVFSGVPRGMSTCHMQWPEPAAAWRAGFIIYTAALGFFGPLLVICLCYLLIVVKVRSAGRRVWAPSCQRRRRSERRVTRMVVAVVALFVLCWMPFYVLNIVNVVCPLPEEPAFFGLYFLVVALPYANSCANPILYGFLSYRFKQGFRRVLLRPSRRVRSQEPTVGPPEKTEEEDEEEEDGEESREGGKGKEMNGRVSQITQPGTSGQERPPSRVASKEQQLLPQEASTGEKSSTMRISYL

[10] = target: Somatostatin receptor type 1 (Homo sapiens, UniProt P30872); assay: Binding affinity to human SST1R
Sequence of Somatostatin receptor type 1 (P30872 whole entry): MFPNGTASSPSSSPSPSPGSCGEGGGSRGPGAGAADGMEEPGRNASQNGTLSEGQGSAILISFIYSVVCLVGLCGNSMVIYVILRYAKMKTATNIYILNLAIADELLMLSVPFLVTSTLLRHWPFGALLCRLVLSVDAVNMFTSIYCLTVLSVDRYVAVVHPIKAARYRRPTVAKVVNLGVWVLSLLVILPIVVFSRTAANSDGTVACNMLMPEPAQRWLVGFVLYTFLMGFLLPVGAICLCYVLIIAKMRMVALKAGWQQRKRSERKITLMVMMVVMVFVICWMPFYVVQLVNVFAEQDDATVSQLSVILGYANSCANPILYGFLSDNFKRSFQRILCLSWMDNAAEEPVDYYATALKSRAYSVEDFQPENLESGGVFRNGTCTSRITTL

[11] = target: Somatostatin receptor type 4 (Homo sapiens, UniProt P31391); assay: Binding affinity to human SST4R
Sequence of Somatostatin receptor type 4 (P31391 whole entry): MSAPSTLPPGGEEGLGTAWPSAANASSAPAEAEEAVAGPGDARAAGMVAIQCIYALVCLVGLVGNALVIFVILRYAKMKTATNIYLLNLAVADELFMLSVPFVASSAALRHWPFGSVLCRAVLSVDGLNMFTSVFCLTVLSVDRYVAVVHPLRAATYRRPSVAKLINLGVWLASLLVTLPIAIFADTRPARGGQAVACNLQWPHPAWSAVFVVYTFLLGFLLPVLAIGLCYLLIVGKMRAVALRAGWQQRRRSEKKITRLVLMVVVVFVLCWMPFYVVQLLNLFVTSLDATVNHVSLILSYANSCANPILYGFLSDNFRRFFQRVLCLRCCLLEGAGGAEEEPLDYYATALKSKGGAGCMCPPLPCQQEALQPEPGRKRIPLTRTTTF

T1 sequence (P35346 whole entry): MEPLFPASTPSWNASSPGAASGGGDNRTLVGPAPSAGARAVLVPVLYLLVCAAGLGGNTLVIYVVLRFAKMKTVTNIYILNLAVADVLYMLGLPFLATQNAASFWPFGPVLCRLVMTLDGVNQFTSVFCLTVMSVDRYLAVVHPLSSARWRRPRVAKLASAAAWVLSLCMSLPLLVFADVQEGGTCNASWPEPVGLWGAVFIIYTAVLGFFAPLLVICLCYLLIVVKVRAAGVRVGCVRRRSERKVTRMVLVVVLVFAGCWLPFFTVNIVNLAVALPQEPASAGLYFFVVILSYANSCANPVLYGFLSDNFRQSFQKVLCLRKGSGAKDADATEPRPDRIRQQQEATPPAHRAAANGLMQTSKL
Sequence of Voltage-gated inwardly rectifying potassium channel KCNH2 (Q12809 whole entry): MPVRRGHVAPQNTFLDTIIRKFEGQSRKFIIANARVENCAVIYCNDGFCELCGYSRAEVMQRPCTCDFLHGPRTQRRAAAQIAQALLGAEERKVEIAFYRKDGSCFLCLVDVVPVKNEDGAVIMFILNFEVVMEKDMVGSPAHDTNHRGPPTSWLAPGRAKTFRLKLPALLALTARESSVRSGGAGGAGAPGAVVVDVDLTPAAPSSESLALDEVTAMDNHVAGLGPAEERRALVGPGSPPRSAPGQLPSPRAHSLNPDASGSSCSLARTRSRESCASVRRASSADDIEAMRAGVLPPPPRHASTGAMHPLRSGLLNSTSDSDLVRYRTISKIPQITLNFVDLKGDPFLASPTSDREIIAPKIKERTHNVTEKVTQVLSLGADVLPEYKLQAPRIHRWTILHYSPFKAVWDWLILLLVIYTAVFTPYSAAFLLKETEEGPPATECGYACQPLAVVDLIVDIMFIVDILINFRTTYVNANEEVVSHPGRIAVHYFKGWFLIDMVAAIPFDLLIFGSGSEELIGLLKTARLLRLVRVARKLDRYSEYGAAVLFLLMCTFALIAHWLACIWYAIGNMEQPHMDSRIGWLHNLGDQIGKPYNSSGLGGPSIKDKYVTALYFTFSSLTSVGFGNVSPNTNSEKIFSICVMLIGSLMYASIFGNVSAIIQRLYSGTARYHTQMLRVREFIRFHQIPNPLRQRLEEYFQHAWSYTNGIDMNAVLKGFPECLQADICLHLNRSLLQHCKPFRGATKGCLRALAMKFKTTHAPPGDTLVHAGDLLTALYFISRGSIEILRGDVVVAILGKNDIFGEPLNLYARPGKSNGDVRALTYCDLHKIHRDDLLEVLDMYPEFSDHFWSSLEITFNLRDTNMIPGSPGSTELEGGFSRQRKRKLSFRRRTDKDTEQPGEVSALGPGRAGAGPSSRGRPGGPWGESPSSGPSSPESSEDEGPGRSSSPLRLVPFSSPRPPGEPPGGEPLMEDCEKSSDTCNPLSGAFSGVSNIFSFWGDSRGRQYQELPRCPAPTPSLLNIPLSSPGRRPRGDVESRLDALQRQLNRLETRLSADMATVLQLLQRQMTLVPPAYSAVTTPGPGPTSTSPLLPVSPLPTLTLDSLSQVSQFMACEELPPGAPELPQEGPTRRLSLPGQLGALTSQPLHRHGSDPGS

SMILES	Ki [7]	further results
CCOc1cc(CN2CCC(Nc3nc4ccccc4o3)CC2)ccc1OC	121 nM	IC50 [1]: < 0.1 µM; IC50 [2]: 740 nM; solubility [3]: 130 µg/mL (≈ 341 µM); logD [4]: 2.92; Ki [5]: 624 nM; Papp [6]: 4.44 ×10⁻⁶ cm/s
COc1ccc(CN2CCC(Nc3nc4ccccc4o3)CC2)cc1OCC(C)C	23 nM	–
Fc1ccc(CCN2CCC(Nc3nc4ccccc4n3Cc3ccc(F)cc3)CC2)cc1	> 10000 nM	–
Fc1ccc(Cn2c(NC3CCN(CC4CCc5ccccc5C4)CC3)nc3ccccc32)cc1 (stereo unspecified)	> 10000 nM	–
Fc1ccc(Cn2c(NC3CCN(CCCc4ccccc4)CC3)nc3ccccc32)cc1	> 10000 nM	–
CCOc1cc(CN2CCC(Nc3nc4ccccc4o3)CC2)ccc1Cl	113 nM	–
CCOc1cc(CN2CCC(Nc3nc4ccccc4o3)CC2)ccc1C	37 nM	–
CCOc1cc(CN2CCC(Nc3nc4ccccc4o3)CC2)ccc1OC(F)(F)F	524 nM	–
Fc1ccc(Cn2c(NC3CCN(Cc4ccccc4)CC3)nc3ccccc32)cc1	6120 nM	–
Fc1ccc(Cn2c(NC3CCN(Cc4ccc5c(c4)CCO5)CC3)nc3ccccc32)cc1	1630 nM	–
Fc1ccc(Cn2c(NC3CCN(Cc4ccc5[nH]ccc5c4)CC3)nc3ccccc32)cc1	3950 nM	–
CCOc1cc(CN2CCC(Nc3nc4cc(S(N)(=O)=O)ccc4o3)CC2)cc(OCC)c1N	13 nM	Ki [8]: > 10 µM; Ki [9]: > 10 µM; Ki [10]: > 10 µM; Ki [11]: > 10 µM
CCOc1cc(CN2CCC(Nc3nc4ccccc4o3)CC2)ccc1O	66 nM	–
Cc1cccc2c(CN3CCC(Nc4nc5ccccc5n4Cc4ccc(F)cc4)CC3)c[nH]c12	1440 nM	–
COc1cc(CN2CCC(Nc3nc4ccccc4s3)CC2)c(OC)c2ccccc12	683 nM	–
COc1cc(CN2CCC(Nc3nc4ccccc4s3)CC2)ccc1O	5130 nM	–
CCOc1cc(CN2CCC(Nc3nc4ccccc4s3)CC2)ccc1O	149 nM	–
CCOc1cc(CN2CCC(Nc3nc4ccccc4s3)CC2)ccc1OC	326 nM	–
COc1cc(CN2CCC(Nc3nc4ccccc4o3)CC2)c(OC)c2ccccc12	794 nM	–
CCOc1cc(CN2CCC(Nc3nc4cc(S(N)(=O)=O)ccc4o3)CC2)ccc1Cl	17 nM	–
COc1ccc(CN2CCC(Nc3nc4ccccc4s3)CC2)cc1OC	1790 nM	–
CCCOc1cc(CN2CCC(Nc3nc4ccccc4o3)CC2)ccc1OC	293 nM	–
COc1ccc(CN2CCC(Nc3nc4ccccc4o3)CC2)cc1OC1CCCC1	83 nM	–
CCOc1cc(CN2CCC(Nc3nc4ccccc4o3)CC2)ccc1F	194 nM	–
COc1cc(CN2CCC(Nc3nc4ccccc4n3Cc3ccc(F)cc3)CC2)c(OC)c2ccccc12	1230 nM	–
CCOc1cc(CN2CCC(Nc3nc4cc(S(N)(=O)=O)ccc4o3)CC2)ccc1OC	185 nM	IC50 [1]: 3.5 µM
Fc1ccc(Cn2c(NC3CCN(CCc4ccc(OC(F)(F)F)cc4)CC3)nc3ccccc32)cc1	> 10000 nM	–
COc1ccc(CN2CCC(Nc3nc4ccccc4n3Cc3ccc(F)cc3)CC2)cc1	3950 nM	–
Fc1ccc(Cn2c(NC3CCN(CCc4ccccc4)CC3)nc3ccccc32)cc1	5000 nM	–
COc1ccc(CCN2CCC(Nc3nc4ccccc4n3Cc3ccc(F)cc3)CC2)cc1 [ASTEMIZOLE]	4070 nM	–

Reference: ChEMBL document CHEMBL1138333, “Discovery of the first nonpeptidic, small-molecule, highly selective somatostatin receptor subtype 5 antagonists: a chemogenomics approach” (J Med Chem, 2007)
